Experimental data from patent US20060205037A1, “Modified transferrin fusion proteins” (priority 2003, published 2006).

Experiments:
[1] = blood; cited from earlier work
c-Fos [2] = test: c-Fos activation in brain after IP injection; type: in vivo, mice
Experimental: (§1) Briefly, mice that received IP injections were anesthetized with isoflurane 2 h later and the mice that received ICV injections were anesthetized 1.5 and 24 h later. Intracardiac perfusion with ice-cold 4% paraformaldehyde was immediately carried out. Brains were removed immediately at the end of perfusion, kept in ice-cold 4% parafor maldehyde for 72 h, and then transferred to a solution containing 4% paraformaldehyde and 25% sucrose until they floated. Each brain as cut into 30 μm sections using a sliding microtome with a freezing stage. Brain sections from each animal were placed in a 12-well plate and then processed for immunocytochemistry. The free-floating sections from each animal were first incubated in 0.3% H2O2 for 30 min and then washed 3 times in PBS for 5 min/rinse. Thereafter the sections were incubated in blocking serum (normal goat serum/PBS/0.1% Triton) for 45 min at room temperature. The sections were stained for c-Fos with an antibody directed against the amino acid residues 4-17 in rabbit anti-human c-Fos (Calbiochem, 1:30,000) for 48 h at 4° C. The sections were then washed 6 times with PBS/0.1% Triton before incubation for 1.5 h at room temperature with biotinylated goat anti-rabbit IgG (1:600) in blocking serum (Vector Laboratories). Thereafter the sections were visualized with DAB (Vectastain ABC kit) and developed until the color reached the required intensity in the control sections. The reaction was stopped by immersion of the slides in distilled water. After the staining was completed, sections were mounted on superfrost slides (Fisher Scientific), air-dried for 1-2 days and coverslipped with Permount. Sections were examined using light microscopy to identify c-Fos-positive cells.

[3] = c-Fos activation in brain after IP injection; type: in vivo, mice; details: IP 1 nmol/kg
Experimental: as §1

db/db mice [4] = test: food intake and post-prandial blood glucose, db/db mice; type: in vivo
Experimental: (§2) Mice (N=5 per group) were conditioned to eat once daily (9-10 am) for five days. […] Food intake and blood glucose levels were measured 2, 4, 7 and 24 h after peptide administration.

db/db mice [5] = test: β-cell proliferation (BrdU) and β-cell mass in db/db mice; type: in vivo; details: for increase in total β-cell mass: 10 mg/kg
Experimental: db/db mice, 6 per time point, received one IP injection of Tf (10 mg/kg) or GLP-1-Tf (10 mg/kg) and were sacrificed 1, 2 and 3 days later for measurement of β-cell proliferation and 3, 5, 8 and 10 days later for measurement of islet mass. Sixty mg/kg 5-bromo-2-deoxyuridine (BrdU, Sigma) was injected IP 6 hours before sacrifice. BrdU is a thymidine analog that is incorporated during S-phase of cell mitosis. Pancreata were removed, fixed overnight in 4% buffered formalin, processed for embedding in paraffin and histological sections (4 μm) mounted on poly-1-lysine-coated glass slides. BrdU was detected with a BrdU antibody (Sigma, 1:500 and also confirmed with Zymed antibody, 1:250) and BrdU staining kit (Zymed Laboratories Inc). Five to six hundred islets from each condition were then visualized and the number of islets that contained BrdU+ cells as well as the percent BrdU+ nuclei per total number of islet cells was quantified. For insulin staining and determination of β-cell mass histological sections were treated with a guinea-pig insulin antibody (Linco). Antibody binding was visualized with 3,3-diaminobenzidine (DAB) and sections counterstained with hematoxylin (Vectastain ABC kit, Vector Laboratories, using goat anti-guinea pig IgG). The sections were examined using a video camera connected to a computer with imaging software. Sectioned tissue images were acquired through a 2.5× objective of a phase contrast light microscope (Carl Zeiss) and digitized by means of a Sony Power HAD digital camera (an average of 20-30 images per section). The total pancreatic area and β-cell positive area for every image were quantified using MetaMorph 4.6.3 software (Universal Imaging Inc., West Chester).

non-diabetic mice [6] = test: food intake and post-prandial blood glucose, non-diabetic mice; type: in vivo
Experimental: as §2

RIN 1046-38 cells = test: insulin secretion in RIN 1046-38 cells; type: cell-based; details: rat insulinoma cells, concentration-dependent
Experimental: Rat insulinoma cell line, RIN1046-38 cells, was obtained from Dr. Samuel A. Clark and cultured with 5% CO2 at 37° C. in M199 medium (Cellgro) as previously described (Wang et al., 2001, Endocrinology, 142: 1820-1827). […] Exendin-9-39 (1 μmol/l: Bachem), an inhibitor of the GLP-1R. was also added overnight to one set of experiments. The supernatant was then collected and saved at −80° C. for determination of insulin content by ELISA (Crystal Chems). Cells were lysed and the protein content was quantified using the Bradford method.

[7] = GLP-1-Tf in serum of cynomolgus monkeys (Example 4); type: in vivo, cynomolgus monkeys (Macaca fascicularis); details: cAMP in CHO/GLP-1R
diabetic db/db mice [8] = test: overnight fast and IPGTT in diabetic mice after SC administration; type: in vivo
Experimental: A group of diabetic mice were given Tf or GLP-1-Tf via SC administration at 9 pm, fasted overnight and an IPGTT performed the next morning. The fasted Tf-treated animals had lower fasting blood glucose than ad libitum fed animals (238±39 versus 358±23 mg/dl; compare 0 time/fasted animals of FIG. 10c with 0 time/fed animals of FIG. 10a), and additionally, the animals given 1 or […] had lower fasting blood glucose (132±27 mg/dl) than those given Tf alone.

non-diabetic mice [9] = test: IPGTT in non-diabetic mice after IP administration; type: in vivo; details: IP 1 and 10 mg/kg
Experimental: Intraperitoneal (IP) glucose tolerance testing (IPGTT) (0.5 g/kg body weight) was carried out after an overnight fast in non-diabetic mice. Tf and GLP-1-Tf were administered IP 30 min before the glucose injection. Blood glucose levels (Glucometer Elite, Bayer) were measured at 0, and 30 and 60 min and plasma insulin levels at 0 and 30 min after the IPGTT.

isolated rat islets = test: insulin secretion in isolated rat islets; type: cell-based; details: concentration-dependent
Experimental: Islets from Sprague-Dawley rats were isolated as we previously described, with some modification (Wang et al., 1997, J. Clin. Invest. 99: 2883-2889). Briefly, pancreata were digested by Collagenase Type XI (Sigma) and islets separated through a Ficoll-Paque gradient (Amersham Biosciences). The isolated islets were washed several times using Hanks Balanced Salts Solution (Biosource) containing 0.2% bovine serum albumin (BSA, Sigma), hand-picked and cultured overnight with 5% CO2 at 37° C. in M199 medium supplemented with 5 mM glucose. Rat islets were then treated similarly to (30-40 per well) to RIN cells as described above.

non-diabetic mice [10] = test: blood glucose after SC administration, ad libitum fed non-diabetic mice; type: in vivo
diabetic db/db mice [11] = system: diabetic db/db mice
Experimental: Male diabetic db/db mice (C57BLKS/J-Lepr^db/Lepr^db) lacking a functioning leptin receptor and their non-diabetic heterozygous littermates were purchased at 4 weeks of age from Jackson Laboratories (Bar Harbor). They were housed, two per cage and fed ad libitum for at least five days before any testing. The same mice were caged together for the duration of the studies.
Plasma insulin levels were measured at 1 and 4 hours.

c-Fos [12] = test: c-Fos activation in brain after ICV injection; type: in vivo, mice
Experimental: Briefly, mice that received IP injections were anesthetized with isoflurane 2 h later and the mice that received ICV injections were anesthetized 1.5 and 24 h later. Intracardiac perfusion with ice-cold 4% paraformaldehyde was immediately carried out. Brains were removed immediately at the end of perfusion, kept in ice-cold 4% parafor maldehyde for 72 h, and then transferred to a solution containing 4% paraformaldehyde and 25% sucrose until they floated. Each brain as cut into 30 μm sections using a sliding microtome with a freezing stage. Brain sections from each animal were placed in a 12-well plate and then processed for immunocytochemistry. The free-floating sections from each animal were first incubated in 0.3% H2O2 for 30 min and then washed 3 times in PBS for 5 min/rinse. Thereafter the sections were incubated in blocking serum (normal goat serum/PBS/0.1% Triton) for 45 min at room temperature. The sections were stained for c-Fos with an antibody directed against the amino acid residues 4-17 in rabbit anti-human c-Fos (Calbiochem, 1:30,000) for 48 h at 4° C. […]
In another series of experiments, Tf and GLP-1-Tf were administered intracerebrovenitricular (ICV) and c-Fos activation assessed 1.5 and 24 hours later.

[13] = compared to hTf-treated animals
[14] = 10 mg/kg, 2 h after administration

In the case of “Carbohydrate deficient transferrin: transferrin form elevated in the blood of alcoholic individuals”, the half life [1] is given as 14 to 17 days.

In the case of exendin-4 [reference compound], the “brain areas with c-Fos activation” value (c-Fos [2]; IP 1 nmol/kg) is reported as “activated similar areas to GLP-1-Tf in all injected animals”, the “AP c-Fos response compared to GLP-1-Tf” value [3] is reported as “much more robust” and the “food intake in the remaining 17 h” value (db/db mice [4]; 1 nmol/kg IP) is reported as “caused a decrease in food intake”. The “time for which essentially all measurable food consumption was prevented” value (db/db mice [4]; 1 nmol/kg IP) was 7 h.

For “glycosylated transferrin: glycosylated serum transferrin”, the half life [1] is listed as 7 to 10 days.

In the case of “pREX0585: nL GLP-1 (7-37; A8G, K34A) (PEAPTD)2 mTf; mTf lacking N-glycosylation at sites 413 and 611”, the “number of BrdU+ nuclei in islets 24 hours after injection” value (db/db mice [5]; 10 mg/kg IP, compared to Tf) is reported as “clear increase in the number of BrdU+ nuclei”, the “islets with 1 or more BRDU+ nuclei” value (db/db mice [5]; 10 mg/kg IP, third day) is reported as “all islets” and the “increase in BRDU+ nuclei” value (db/db mice [5]; 10 mg/kg IP, third day, vs Tf, p<0.01) is reported as 4.7 fold. The “increase in total β-cell mass” value (db/db mice [5]; 3 days, compared to Tf) was 1.7 fold, the “increase in total β-cell mass” value (db/db mice [5]; 5 days, compared to Tf) was 2.2 fold and the “increase in total β-cell mass” value (db/db mice [5]; 8 days, compared to Tf) was 4.1 fold. The “increase in total β-cell mass” value (db/db mice [5]; 10 days, compared to Tf) was 4.3 fold, the “post-prandial blood glucose levels” value (non-diabetic mice [6]; 0.1, 1 and 10 mg/kg, compared to Tf only) was “lower” and the “time for which food intake was decreased by approximately half” value (“time for which food intake was decreased” for short) (non-diabetic mice [6]; IP 1 mg/kg) was 2 h. For the same substance, the “time for which food intake was decreased” value (non-diabetic mice [6]; IP 10 mg/kg) was “up to 7 h”, the insulin secretion (RIN 1046-38 cells) was “stimulate insulin secretion” and the “activity of GLP-1-Tf in serum from the injected monkeys on CHO/GLP-1R” value [7] was “biologically active”. For the same substance, the fasting blood glucose (diabetic db/db mice [8]; SC at 9 pm, fasted overnight, GLP-1-Tf 1 or 10 mg) was 132 ± 27 mg/dL, the “glucose levels after the IPGTT” value (diabetic db/db mice [8]; [13]) was “lower glucose levels” and the “plasma insulin levels after the IPGTT” value (diabetic db/db mice [8]; [13]) was “higher plasma insulin levels”. The “c-Fos activation, AP” value (c-Fos [2]; 1 mg/kg) was 0/6, the “c-Fos activation, NTS” value (c-Fos [2]; 1 mg/kg) was 6/6 and the “c-Fos activation, PVH” value (c-Fos [2]; 1 mg/kg) was 6/6. For the same substance, the “c-Fos activation, area postrema (AP)” value (c-Fos [2]; [14]) was 4/6, the “c-Fos activation, nuclei of the solitary tract (NTS)” value (c-Fos [2]; [14]) was 6/6 and the “c-Fos activation, paraventricular nuclei of the hypothalamus (PVH)” value (c-Fos [2]; [14]) was 6/6. The insulin secretion (non-diabetic mice [9]; 30 min before glucose) was “enhanced insulin secretion”, the peak blood glucose (non-diabetic mice [9]; IPGTT) was “decreased” and the insulin secretion (isolated rat islets) was “stimulate insulin secretion”. For the same substance, the “time for blood glucose to rise to pre-administration levels” value (non-diabetic mice [10]) was ≤ 24 h, the “blood glucose concentration and insulin secretion” value (non-diabetic mice [10]; ad libitum fed) was “dose-dependently reduced blood glucose concentration and increased insulin secretion” and the “persistence of low blood glucose” value (non-diabetic mice [10]; higher dose 10 mg/kg) was “up to 36 hours”. For the same substance, the blood glucose level (non-diabetic mice [10]; within 3 hours of administration) was 70 mg/dL, the “plasma insulin levels at 1 hour” value (diabetic db/db mice [11]; SC 0.1 mg/kg) was “increased plasma insulin levels” and the “beginning of blood glucose effect after injection” value (diabetic db/db mice [11]; SC 1 and 10 mg/kg) was 1 h. For the same substance, the “duration of increased plasma insulin levels” value (diabetic db/db mice [11]; SC 1 and 10 mg/kg) was ≥ 4 h, the blood glucose (diabetic db/db mice [11]; SC both 1 and 10 mg/kg, ad libitum, from 358±23) was 115 ± 18 mg/dL and the “duration of effect on blood glucose” value (diabetic db/db mice [11]; SC highest dose) was “at least 12 hours”. For the same substance, the “duration of blood glucose lowering” value (diabetic db/db mice [11]; SC low dose 0.1 mg/kg) was 4 h, the “post-prandial blood glucose levels” value (db/db mice [4]; 0.1, 1 and 10 mg/kg, compared to Tf treatment) was “lowered post-prandial blood glucose levels” and the “time for which food intake was decreased” value (db/db mice [4]; IP 1 and 10 mg/kg) was 2 h. For the same substance, the “c-Fos activation ninety minutes after ICV injection” value (c-Fos [12]; 1.5 h) was “c-Fos activation had occurred in PVH and NTS but not AP” and the “c-Fos activation 24 h after ICV injection” value (c-Fos [12]; 24 h) was “not present in any of the three brain regions”.
